Test results: patent US20110208153A1, “FORMULATIONS AND METHODS FOR NUTRIENT DELIVERY” (priority 2010, published 2011)

Tested on: pre-retinal neovascularization
Experiment: pre-retinal neovascularization in the OIR mouse model following gavage treatments
Assay type: in vivo
Settings: for pre-retinal neovascularization relative to vehicle control: P<0.05
Excerpt: FIG. 1 provides a graphical summary of the analysis of pre-retinal neovascularization levels in the mouse model following gavage treatments. The numbers in brackets in the legend refer to gavage doses in g/kg bodyweight/day. An * indicates P-values<0.05.

Compound | pre-retinal neovascularization relative to vehicle control (2.5 g/kg body weight/day) | effect on pre-retinal neovascularization (in words) | pre-retinal neovascularization relative to vehicle control (5 g/kg of body weight/day)
CC/C=C\C/C=C\C/C=C\C/C=C\C/C=C\C/C=C\CCC(=O)O [DHA, docosahexaenoic acid] | 49±4% |  | 
arginyl-glutamine dipeptide [Arg-Gln dipeptide] |  | dose-dependent reduction | 39±6%
